{
  "source": "patent US7838645B2",
  "about": "“Function of autophagy genes in cell death” (University of Maryland College Park, priority 2004, dated 2010)",
  "key": {"RAW264.7 cells": {"test_system": "RAW264.7 cells", "assay": "Cell loss by flow cytometry in RAW264.7 cells", "type": "cell-based, mouse", "conditions": "FIG. 6", "procedure": "(§1) Cell viability was determined after treatments by staining with propidium iodide (2 μg/mL) and flow cytometric analysis on a FACScan. Percent cell death was quantitated as previously described (26).\n(§2) The RAW264.7 cells were treated with 0.1 ug/ml Wortmannin (WM) or 10 mM 3-methyladenine (3-MA) for 1 hr and the with 100 uM zVAD for 48 hrs, after which cell loss was quantitated by flow cytometry. […] Mouse peritoneal macrophages cells were treated with 0.1 ug/ml Wortmannin (WM) or 10 mM 3-methyladenine (3-MA) for 1 hr and with 100 uM zVAD for 24 hrs, after which cell loss were quantitated by flow cytometry."}, "L929 cells [1]": {"test_system": "L929 cells", "assay": "Cell death analysis (propidium iodide staining, flow cytometry) in L929 cells", "type": "cell-based, mouse", "conditions": "for Induction of cell death (% cell loss): 40 hours, FIG. 9", "procedure": "as §1\nIn mouse L929 fibroblastic cells, tumor necrosis factor (TNF), oxidants, ceramide, and radiation can induce caspase-independent death (11). […] L929 cells were treated with 1 ul of dimethyl sulfoxide (DMSO) FIG. 1A (a and c) or 20 uM zVAD (b and d) for 24 hours and examined by phase contrast microscopy (a and b); or 4′,6′-diamidino-2-phenylindole-staining and fluorescent microscopy (c and d). Magnification: 200×. […] The percentage of vaculated cells is the fraction of cells that have 10 or more autophagic vacuoles by TEM. Statistical analysis is shown in FIG. 4 and morphometric analysis of zVAD-induced autophagy in L929 cells is quantitated in Table 1 setforth below. […]\nL929 cells were treated with 1 ul/ml DMSO, 20 uM zVAD, 20 uM zFA, 20 uM LEHD, 20 uM DEVD, or 20 uM zAAD for 40 hours, and % cell loss was quantified by flow cytometry. […] Because zVAD is a potent inhibitor of caspase-8, it likely exerted its death effect through inhibition of caspase-8."}, "[2]": {"test_system": "mouse peritoneal macrophages", "assay": "Cell loss by flow cytometry in mouse peritoneal macrophages", "type": "cell-based", "conditions": "FIG. 7", "procedure": "as §1, §2"}, "[3]": {"test_system": "c-Jun N-terminal kinase (JNK)", "assay": "Detection of phosphorylated JNK/SAPK by Western blot in L929 cells", "type": "cell-based, mouse", "conditions": "zVAD 24 hrs, 2% FBS, FIG. 2B", "procedure": "L929 cells were treated with DMSO or zVAD for 24 hrs in the presence of 2% FBS. The cell lysate was spun for 10 minutes at 13000 rpm. 20 ul of the c-Jun beads (SAPK/JNK assay kit from Cell Signaling) were added to the supernatant and incubated overnight at 4° C. Beads were washed 4 times with lysis buffer and resuspended in 50 ul of 1× sample buffer. Samples were boiled for 5 minutes and analyzed by SDS-PAGE and Western blot for phosphorylated SAP/JNK by probing with phospho-JNK antibody.\nDeath receptors can elicit nonapoptotic death through the “receptor-interacting protein” (RIP), a death-domain-containing, serine-threonine kinase (6, 7). […] For example, cells were treated with zVAD after transfection with RIP RNAi or nonspecific (NS) oligonucleotides. Reduction in cell number (solid bars) and the fractions of cells with autophagic features based on TEM (open bars) are shown in FIG. 2A. FIG. 2B is a western blot for phospho-JNK (left lane) or total JNK protein (right lane) after zVAD treatment. zVAD activated c-Jun N-terminal kinase (JNK) that is also activated by RIP in response to cytokines."}, "L929 cells [4]": {"test_system": "L929 cells", "assay": "Transmission electron microscopy morphometric analysis of autophagy in L929 cells", "type": "cell-based, mouse", "conditions": "for Apoptotic cell / Autophagic and apoptotic features / Autophagic cells(total) / Lytic/necrotic cell / Mild autophagy (cell with 10~19 vacuoles) / Moderate autophagy (cell with 20~29 vacuoles) / Normal cells / Severe Autophagy (cell with 30 or more vacuoles) / Vacuolated(but not autophagic): TEM, of total 100", "procedure": "Cells were fixed in 3% glutaraldehyde in 0.1 M MOPS buffer (pH 7.0) for 8 hrs at room temperature, 3% glutaraldehyde/1% paraformaldehyde in 0.1 M MOPS buffer (pH 7.0) for 16 hours at 4° C., post-fixed in 1% osmium tetroxide for 1 hour, embedded in Spurr's resin, sectioned, double stained with Uranyl acetate and Lead citrate, and analyzed using a Zeiss EM 10 transmission electron microscope. For each treatment or control group, at least 100 cells from randomly chosen transmission electron microscopy fields were analyzed for quantification of morphological features. Cells with ≧10 vacuoles were scored as autophagy positive. Cells were stratified as follows: 0 (≦9 vacuoles/cell), 1(10-19 vacuoles/cell), 2 (20-29 vacuoles/cell), 3 (≧30 vacuoles/cell). Scores were ranked and comparisons of treatment to control groups were made using the Mann-Whitney U test using the Statview 5.0.1 program. Statistical analysis of the differences in FIG. 1, panels D, E, F, and G and FIG. 2A, B, D were significant (p<0.0001).\nIn mouse L929 fibroblastic cells, tumor necrosis factor (TNF), oxidants, ceramide, and radiation can induce caspase-independent death (11). […] L929 cells were treated with 1 ul of dimethyl sulfoxide (DMSO) FIG. 1A (a and c) or 20 uM zVAD (b and d) for 24 hours and examined by phase contrast microscopy (a and b); or 4′,6′-diamidino-2-phenylindole-staining and fluorescent microscopy (c and d). Magnification: 200×. […] The percentage of vaculated cells is the fraction of cells that have 10 or more autophagic vacuoles by TEM. Statistical analysis is shown in FIG. 4 and morphometric analysis of zVAD-induced autophagy in L929 cells is quantitated in Table 1 setforth below."}, "RIP": {"test_system": "RIP", "assay": "RIP cleavage by caspase-8 (Western blot, FIG. 11)", "type": "cell-based", "conditions": "cells treated with zVAD", "source_text": "It was observed that the signaling through the serine-threonine kinase RIP is essential for autophagic cell death. When RIP is cleaved and inactivated by caspase 8, then a mechanism is provided for the prevention of autophagic cell death. However, inhibition of caspase 8 allows RIP to transmit the signal needed to kill the cell through the autophagic pathway. […] Clearly, zVAD treatment prevents RIP from constitutive caspase-8 cleavage. The indicated band is the 42 kD proteolytic product that is characteristic of caspase-8 cleavage (1)."}},
  "note": "Where a SMILES comes first, the peptide text is derived from it. The star is where a group is joined. Cbz = O=C(OCc1ccccc1)*; CH2Cl = ClC*; CH2F = FC*",
  "data": [
    {"smiles": "Cn1cnc(N)c2ncnc1-2", "note": "[3-MA, 3-methyladenine]", "values": [
      {"measurement": "Effect on zVAD-induced cell death", "setting": "RAW264.7 cells; 0.1 ug/ml WM or 10 mM 3-MA for 1 hr, then 100 uM zVAD for 48 hrs", "result": "arrested zVAD-induced cell death"},
      {"measurement": "Effect on zVAD-induced cell loss", "setting": "L929 cells [1]; WM 0.1 ug/ml or 3-MA 10 mM for 1 hour, then 20 uM zVAD for 36 hours, FIG. 1E", "result": "reduction in cell loss"},
      {"measurement": "Effect on zVAD-induced cell death", "setting": "[2]; 0.1 ug/ml WM or 10 mM 3-MA for 1 hr, then 100 uM zVAD for 24 hrs", "result": "arrested zVAD-induced cell death"}
    ]},
    {"smiles": "COC(=O)CCC(NC(=O)C(CC(=O)OC)NC(=O)OCc1ccccc1)C(=O)NC(C(=O)NC(CC(=O)OC)C(=O)CF)C(C)C", "note": "(stereo not shown) [DEVD, benzyloxycarbonyl-Aspartyl-(O-methyl)-Glutamyl-(O-methyl)-Valyl-Aspartyl-(O-methyl)-fluoromethylketone]", "values": [
      {"measurement": "Induction of cell death (% cell loss)", "setting": "L929 cells [1]; 20 uM, flow cytometry", "result": "no ability to induce cell death"}
    ]},
    {"smiles": "O=C1c2ccccc2-c2n[nH]c3cccc1c23", "note": "[JNK inhibitor II, Anthra[1,9-cd]pyrazol-6 (2H)-one 1,9-pyrazoloanthrone]", "values": [
      {"measurement": "Effect on zVAD-induced cell death (% cell loss)", "setting": "L929 cells [1]; 1 ug/ml inhibitor for 1 hour, then 20 uM zVAD for 40 hours, flow cytometry, FIG. 8", "result": "blocked zVAD-induced cell death"}
    ]},
    {"smiles": "COC(=O)CC(NC(=O)C(C)NC(=O)C(C)NC(=O)OCc1ccccc1)C(=O)CCl", "note": "(stereo not drawn) [ZAAD, benzyloxycarbonyl-Alanyl-Alanyl-Aspartyl-(O-methyl)-chloromethylketone] (Cbz-Ala-Ala-Asp(OMe)-CH2Cl; configuration not given here)", "values": [
      {"measurement": "Induction of cell death (% cell loss)", "setting": "L929 cells [1]; 20 uM, flow cytometry", "result": "no ability to induce cell death"}
    ]},
    {"smiles": "C[C@@H]1C[C@@H]([C@H](O)CC2CC(=O)NC(=O)C2)C(=O)[C@@H](C)C1", "note": "[cycloheximide, Cycloheximide]", "values": [
      {"measurement": "Effect of protein synthesis inhibition on zVAD-induced cell death", "setting": "L929 cells [1]; FIG. 2C", "result": "blocked cell death"}
    ]},
    {"smiles": "COC(=O)CC(NC(=O)C(C)NC(=O)C(NC(=O)OCc1ccccc1)C(C)C)C(=O)CF", "note": "(stereo not drawn) [zVAD, Benzyloxycarbonyl-Valyl-Alanyl-Aspartyl-(O-methyl)-fluoromethylketone] (Cbz-Val-Ala-Asp(OMe)-CH2F; configuration not given here)", "values": [
      {"measurement": "Activation of JNK (phospho-JNK Western blot)", "setting": "[3]", "result": "activated"},
      {"measurement": "Induction of cell death", "setting": "RAW264.7 cells; 100 uM zVAD for 48 hrs", "result": "induced cell death by the autophagic pathway"},
      {"measurement": "Time after which death was complete", "setting": "L929 cells [1]; 20 uM zVAD, FIG. 1B", "result": 40, "unit": "h"},
      {"measurement": "Time at which death began after zVAD treatment", "setting": "L929 cells [1]; 20 uM zVAD, FIG. 1B", "result": 12, "unit": "h"},
      {"measurement": "Induction of death of L929 cells", "setting": "L929 cells [1]; 20 uM, 24 hours, microscopy", "result": "directly induced the death of L929 cells"},
      {"measurement": "Induction of cell death (% cell loss)", "setting": "L929 cells [1]; 20 uM, flow cytometry", "result": "induced cell death"},
      {"measurement": "Time course of zVAD induced autophagy (percentage of vacuolated cells, 10 or more autophagic vacuoles by TEM)", "setting": "L929 cells [4]; FIG. 1D", "result": "vacuolated cells accumulated prior to cell death"},
      {"measurement": "Apoptotic cell", "setting": "L929 cells [4]; zVAD 0 hrs", "result": 0},
      {"measurement": "Autophagic and apoptotic features", "setting": "L929 cells [4]; zVAD 0 hrs", "result": 0},
      {"measurement": "Autophagic cells(total)", "setting": "L929 cells [4]; zVAD 0 hrs", "result": 0},
      {"measurement": "Lytic/necrotic cell", "setting": "L929 cells [4]; zVAD 0 hrs", "result": 0},
      {"measurement": "Mild autophagy (cell with 10~19 vacuoles)", "setting": "L929 cells [4]; zVAD 0 hrs", "result": 0},
      {"measurement": "Moderate autophagy (cell with 20~29 vacuoles)", "setting": "L929 cells [4]; zVAD 0 hrs", "result": 0},
      {"measurement": "Normal cells", "setting": "L929 cells [4]; zVAD 0 hrs", "result": 85},
      {"measurement": "Severe Autophagy (cell with 30 or more vacuoles)", "setting": "L929 cells [4]; zVAD 0 hrs", "result": 0},
      {"measurement": "Vacuolated(but not autophagic)", "setting": "L929 cells [4]; zVAD 0 hrs", "result": 15},
      {"measurement": "Apoptotic cell", "setting": "L929 cells [4]; zVAD 8 hrs", "result": 4},
      {"measurement": "Autophagic and apoptotic features", "setting": "L929 cells [4]; zVAD 8 hrs", "result": 1},
      {"measurement": "Autophagic cells(total)", "setting": "L929 cells [4]; zVAD 8 hrs", "result": 76},
      {"measurement": "Lytic/necrotic cell", "setting": "L929 cells [4]; zVAD 8 hrs", "result": 0},
      {"measurement": "Mild autophagy (cell with 10~19 vacuoles)", "setting": "L929 cells [4]; zVAD 8 hrs", "result": 55},
      {"measurement": "Moderate autophagy (cell with 20~29 vacuoles)", "setting": "L929 cells [4]; zVAD 8 hrs", "result": 20},
      {"measurement": "Normal cells", "setting": "L929 cells [4]; zVAD 8 hrs", "result": 19},
      {"measurement": "Severe Autophagy (cell with 30 or more vacuoles)", "setting": "L929 cells [4]; zVAD 8 hrs", "result": 1},
      {"measurement": "Vacuolated(but not autophagic)", "setting": "L929 cells [4]; zVAD 8 hrs", "result": 0},
      {"measurement": "Apoptotic cell", "setting": "L929 cells [4]; zVAD 12 hrs", "result": 1},
      {"measurement": "Autophagic and apoptotic features", "setting": "L929 cells [4]; zVAD 12 hrs", "result": 1},
      {"measurement": "Autophagic cells(total)", "setting": "L929 cells [4]; zVAD 12 hrs", "result": 93},
      {"measurement": "Lytic/necrotic cell", "setting": "L929 cells [4]; zVAD 12 hrs", "result": 3},
      {"measurement": "Mild autophagy (cell with 10~19 vacuoles)", "setting": "L929 cells [4]; zVAD 12 hrs", "result": 24},
      {"measurement": "Moderate autophagy (cell with 20~29 vacuoles)", "setting": "L929 cells [4]; zVAD 12 hrs", "result": 59},
      {"measurement": "Normal cells", "setting": "L929 cells [4]; zVAD 12 hrs", "result": 2},
      {"measurement": "Severe Autophagy (cell with 30 or more vacuoles)", "setting": "L929 cells [4]; zVAD 12 hrs", "result": 10},
      {"measurement": "Vacuolated(but not autophagic)", "setting": "L929 cells [4]; zVAD 12 hrs", "result": 0},
      {"measurement": "Induction of cell death", "setting": "[2]; 100 uM zVAD for 24 hrs", "result": "induced cell death by the autophagic pathway"},
      {"measurement": "RIP cleavage fragments characteristic of caspase-8 activity", "setting": "RIP", "result": "no cleaved fragments were found"}
    ]}
  ]
}
